Laboratory results taken from the supplement of paper PMC10307832.

How the values were obtained:
Experiment in all cases: relative viability (nuclei count vs DMSO), 5 days (fraction); higher = more cells survive
[1] = compound: C1=CC2=NC=CN=C2C=C1/C=C/3\C(=O)NC(=O)S3 + CC(=O)c1c(C)c2cnc(Nc3ccc(N4CCNCC4)cn3)nc2n(C2CCCC2)c1=O [Palbociclib] (partner 0.5 µM)
Outline: (§1)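 Relative viability equals treated-well nuclei counts divided by vehicle-well nuclei counts. Counts came from 4× images of lung cancer cell lines grown in 1536-well plates for 5 days after pin-tool dosing on the day after seeding. Dosing used one drug alone or a fixed anchor-drug dose plus five library-drug doses (not always all listed) in √10 steps, and values are medians of duplicate plates.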

[2] = compound: CCN1CCN(c2ccc(Nc3cc(N(C)C(=O)Nc4c(Cl)c(OC)cc(OC)c4Cl)ncn3)cc2)CC1 [BGJ398] + CC(=O)c1c(C)c2cnc(Nc3ccc(N4CCNCC4)cn3)nc2n(C2CCCC2)c1=O [Palbociclib] (partner 0.5 µM)
Outline: as §1

[3] = compound: C1=CC2=NC=CN=C2C=C1/C=C/3\C(=O)NC(=O)S3 + CCNC(=O)c1noc(-c2cc(C(C)C)c(O)cc2O)c1-c1ccc(CN2CCOCC2)cc1 [Luminespib] (partner 0.01 µM)
Outline: as §1

[4] = compound: C1=CC2=NC=CN=C2C=C1/C=C/3\C(=O)NC(=O)S3 + NC(=O)Nc1cc(-c2cccc(F)c2)sc1C(=O)N[C@H]1CCCNC1 [AZD7762] (partner 0.2 µM)
Outline: as §1

Cell Line | relative viability ([1]; first compound 0.02 µM) | relative viability ([1]; first compound 0.06325 µM) | relative viability ([1]; first compound 0.2 µM) | relative viability ([1]; first compound 0.6325 µM) | relative viability ([1]; first compound 2 µM) | relative viability ([2]; first compound 0.01 µM) | relative viability ([2]; first compound 0.03162 µM) | relative viability ([2]; first compound 0.1 µM) | relative viability ([2]; first compound 0.3162 µM) | relative viability ([2]; first compound 1 µM) | relative viability ([3]; first compound 0.02 µM) | relative viability ([3]; first compound 0.06325 µM) | relative viability ([3]; first compound 0.2 µM) | relative viability ([3]; first compound 0.6325 µM) | relative viability ([3]; first compound 2 µM) | relative viability ([4]; first compound 0.02 µM) | relative viability ([4]; first compound 0.06325 µM) | relative viability ([4]; first compound 0.2 µM) | relative viability ([4]; first compound 0.6325 µM) | relative viability ([4]; first compound 2 µM)
COR-L23 | 0.276 | 0.281 | 0.295 | 0.3 | 0.235 | 0.299 | 0.332 | 0.269 | 0.288 | 0.273 | 0.684 | 0.842 | 0.77 | 0.581 | 0.652 |  |  |  |  | 
ABC-1 | 0.75 | 0.699 | 0.726 | 0.662 | 0.645 | 0.647 | 0.593 | 0.584 |  | 0.945 |  | 0.872 | 0.616 | 0.519 | 0.982 | 0.696 | 1.23 | 1.1 | 0.819 | 0.957
SW 900 | 0.491 | 0.545 | 0.511 |  | 0.602 | 0.52 | 0.528 | 0.534 | 0.453 | 0.528 | 0.163 | 0.176 | 0.173 | 0.223 | 0.21 | 0.653 | 0.571 | 0.652 |  | 0.525
NCI-H838 | 0.217 | 0.25 | 0.233 | 0.179 | 0.17 | 0.203 | 0.203 | 0.217 | 0.22 | 0.195 | 0.295 | 0.446 | 0.267 | 0.26 | 0.324 | 0.915 | 0.915 | 0.914 | 0.861 | 0.685
NCI-H1648 | 0.301 | 0.223 | 0.345 |  | 0.23 | 0.266 |  | 0.256 | 0.273 | 0.227 |  |  |  |  |  | 0.659 | 0.562 | 0.806 |  | 0.706
A-427 | 0.498 | 0.561 | 0.507 | 0.524 | 0.533 | 0.524 | 0.488 | 0.49 | 0.435 | 0.393 | 0.978 | 0.958 | 1 | 0.842 | 0.991 | 0.826 | 0.849 | 0.709 | 0.8 | 0.776
NCI-H1792 | 0.652 | 0.471 | 0.663 | 0.595 | 0.425 | 0.637 | 0.733 | 0.61 | 0.655 | 0.532 | 0.418 | 0.29 | 0.453 | 0.436 | 0.374 | 0.675 |  | 0.642 | 0.667 | 0.348
LCLC-97TM1 | 0.239 | 0.214 | 0.215 | 0.176 | 0.155 | 0.177 | 0.221 | 0.262 | 0.197 | 0.267 | 0.767 | 0.839 | 0.823 | 0.671 | 0.499 | 0.21 | 0.219 | 0.253 | 0.269 | 0.113
NCI-H1703 |  |  |  |  |  |  |  |  |  |  |  |  |  |  |  | 0.126 | 0.109 | 0.135 | 0.124 | 0.128
LCLC-103H | 0.482 | 0.457 | 0.475 | 0.431 | 0.485 | 0.42 | 0.497 | 0.457 | 0.478 | 0.518 | 1.02 | 0.966 | 0.906 | 0.966 | 0.806 | 0.658 | 0.886 | 0.828 | 0.749 | 0.629
